How the values were obtained:
Format in all cases: cell-based
[1] = tested on: C3A hepatocellular carcinoma cell line; experiment: Ex vivo proliferation assay, 96 h exposure; details: Homo sapiens, 96 h of exposure, AKR1C3 protein High, read-out: 3424 IC50
Procedure: (§1) Exponentially growing cells were inoculated. After 24 h, the test compound OBI-3424 was added. After addition of the test compound OBI-3424, plates were incubated in a standard tissue incubator at 37° C. for the indicated hours. At the end of the experiment, viable cells were detected using the CellTiter Glo (CTG) assay kit or AlamarBlue. Drug concentrations (IC50) resulting in 50% growth inhibition relative to untreated control were calculated using XLfit (IDBS, Boston, MA) or Prism 6 (GraphPad, San Diego, CA).
(§2) After exposing the hepatocellular carcinoma cell lines to compound OBI-3424 for 96 h and exposing the NSCLC cell lines to compound OBI-3424 for 72 h, the IC50 value was determined by ex vivo proliferation assay, and the expression of AKR1C3 protein in hepatocellular carcinoma cell lines was determined by Western blotting (tubulin was used as loading control). The expression data of AKR1C3 RNA in the hepatocellular carcinoma cell lines and in the NSCLC cell lines were from CrownBio database (https://db.crownbio.com/Crownbio/OncoExpress_Login.aspx).

[2] = tested on: HLE hepatocellular carcinoma cell line; experiment: Ex vivo proliferation assay, 96 h exposure; details: Homo sapiens, 96 h of exposure, AKR1C3 protein High, read-out: 3424 IC50
Procedure: as §1, §2

[3] = tested on: HLF hepatocellular carcinoma cell line; experiment: Ex vivo proliferation assay, 96 h exposure; details: Homo sapiens, 96 h of exposure, AKR1C3 protein Low, read-out: 3424 IC50
Procedure: as §1, §2

[4] = tested on: SK-HEP-1 hepatocellular carcinoma cell line; experiment: Ex vivo proliferation assay, 96 h exposure; details: Homo sapiens, SK-HEP1; SK-HEP-1, 96 h of exposure; AKR1C3 protein Low; read-out: 3424 IC50
Procedure: as §1, §2

[5] = tested on: SNU-182 hepatocellular carcinoma cell line; experiment: Ex vivo proliferation assay, 96 h exposure; details: Homo sapiens; SNU-182, 96 h of exposure; AKR1C3 protein Low; read-out: 3424 IC50
Procedure: as §1, §2

[6] = tested on: SNU-398 hepatocellular carcinoma cell line; experiment: Ex vivo proliferation assay, 96 h exposure; details: Homo sapiens; SNU-398, 96 h of exposure; AKR1C3 protein Low; read-out: 3424 IC50
Procedure: as §1, §2

[7] = tested on: SNU-449 hepatocellular carcinoma cell line; experiment: Ex vivo proliferation assay, 96 h exposure; details: Homo sapiens; SNU-449, 96 h of exposure; AKR1C3 protein High; read-out: 3424 IC50
Procedure: as §1, §2

[8] = tested on: SNU-475 hepatocellular carcinoma cell line; experiment: Ex vivo proliferation assay, 96 h exposure; details: Homo sapiens; SNU-475, 96 h of exposure; AKR1C3 protein High; read-out: 3424 IC50
Procedure: as §1, §2

[9] = tested on: NCI-H1563 NSCLC cell line; experiment: Ex vivo proliferation assay, 72 h exposure; details: Homo sapiens; NCI-H1563, 72 h of exposure; read-out: 3424 IC50
Procedure: as §1, §2

[10] = tested on: NCI-H1792 NSCLC cell line; experiment: Ex vivo proliferation assay, 72 h exposure; details: Homo sapiens; NCI-H1792, 72 h of exposure; read-out: 3424 IC50
Procedure: as §1, §2

[11] = tested on: NCI-H1944 NSCLC cell line; experiment: Ex vivo proliferation assay, 72 h exposure; details: Homo sapiens; NCI-H1944, 72 h of exposure; read-out: 3424 IC50
Procedure: as §1, §2

NCI-H522 NSCLC cell line = experiment: Ex vivo proliferation assay, 72 h exposure; details: Homo sapiens; NCI-H522, 72 h of exposure; read-out: 3424 IC50
Procedure: as §1, §2

NCIH1755 NSCLC cell line = experiment: Ex vivo proliferation assay, 72 h exposure; details: Homo sapiens, NCI-H1755; NCIH1755, 72 h of exposure; read-out: 3424 IC50
Procedure: as §1, §2

NCIH2106 NSCLC cell line = experiment: Ex vivo proliferation assay, 72 h exposure; details: Homo sapiens; NCIH2106, 72 h of exposure; read-out: 3424 IC50
Procedure: as §1, §2

[12] = tested on: CCRF-CEM hematological cancer cell line; experiment: Ex vivo proliferation assay, hematological cancer cell lines, 72 h; details: Homo sapiens; Table 6: CCRF-CEM, 72 h of exposure
Procedure: as §1
(§3) After exposing the hematological cancer cell lines to compound OBI-3424 for 72 h, the IC50 value was determined by ex vivo proliferation assay. The expression data of AKR1C3 RNA in hematological cancer cell lines was from CrownBio database (https://db.crownbio.com/Crownbio/OncoExpress_Login.aspx).

[13] = tested on: HEL hematological cancer cell line; experiment: as above; details: Homo sapiens; Table 6: HEL, 72 h of exposure
Procedure: as §1, §3

[14] = tested on: Jurkat hematological cancer cell line; experiment: as above; details: Homo sapiens; Table 6: Jurkat, 72 h of exposure
Procedure: as §1, §3

[15] = tested on: KG-1 hematological cancer cell line; experiment: as above; details: Homo sapiens; Table 6: KG-1, 72 h of exposure
Procedure: as §1, §3

[16] = tested on: Kasumi-1 hematological cancer cell line; experiment: as above; details: Homo sapiens; Table 6: Kasumi-1, 72 h of exposure
Procedure: as §1, §3

[17] = tested on: P31/FUJ hematological cancer cell line; experiment: as above; details: Homo sapiens; Table 6: P31/FUJ, 72 h of exposure
Procedure: as §1, §3

[18] = tested on: PF-382 hematological cancer cell line; experiment: as above; details: Homo sapiens; Table 6: PF-382, 72 h of exposure
Procedure: as §1, §3

[19] = tested on: SUP-T1 hematological cancer cell line; experiment: as above; details: Homo sapiens; Table 6: SUP-T1, 72 h of exposure
Procedure: as §1, §3

[20] = tested on: TALL-1 hematological cancer cell line; experiment: as above; details: Homo sapiens; Table 6: TALL-1, 72 h of exposure
Procedure: as §1, §3

[21] = tested on: TF-1 hematological cancer cell line; experiment: as above; details: Homo sapiens; Table 6: TF-1, 72 h of exposure
Procedure: as §1, §3

[22] = tested on: THP-1 hematological cancer cell line; experiment: as above; details: Homo sapiens; Table 6: THP-1, 72 h of exposure
Procedure: as §1, §3

IC50 [1]: 5 nM | IC50 [2]: 113 nM | IC50 [3]: > 1000 nM | IC50 [4]: > 1000 nM | IC50 [5]: > 1000 nM | IC50 [6]: > 1000 nM | IC50 [7]: 45 nM | IC50 [8]: 15 nM | IC50 [9]: 2.5 nM | IC50 [10]: 4.5 nM | IC50 [11]: 2.3 nM | IC50 (NCI-H522 NSCLC cell line): > 1000 nM | IC50 [12]: 1.7 nM | IC50 [13]: 224 nM | IC50 [14]: 51.1 nM | IC50 [15]: 153 nM | IC50 [16]: ≥ 1000 nM | IC50 [17]: ≥ 1000 nM | IC50 [18]: 6 nM | IC50 [19]: 3.9 nM | IC50 [20]: 24 nM | IC50 [21]: 16.8 nM | IC50 [22]: ≥ 1000 nM
SMILES: C[C@H](OP(=O)(N1CC1)N1CC1)c1ccc([N+](=O)[O-])c(Oc2cccc(C(=O)N(C)C)c2)c1 [OBI-3424]
IC50 (NCIH1755 NSCLC cell line): 8.2 nM | IC50 (NCIH2106 NSCLC cell line): > 1000 nM
